# PMC10449848, “Structural basis of lipid-droplet localization of 17-beta-hydroxysteroid dehydrogenase 13” (Nature Communications, 2023)
# Substitutions are numbered along the chain they refer to. “And” between values parts separate entries of the source, which are not always exact repeats. Identical values can stand only once.
# How the values were obtained:
# dog WT HSD17B13 = biological target: T1, dog WT HSD17B13 (Canis lupus familiaris, UniProt A0A8C0PP93); assay: Thermal shift assay (static light scattering, Tagg), dog WT HSD17B13; type: binding; settings: Fig. 6d; 500 μM NAD+
# T1 construct: HSD17B13 (AA1-300, XP_038300006.1); made in house; host or cells: Sf9 (baculovirus)
# T1 sequence (A0A8C0PP93 1-300): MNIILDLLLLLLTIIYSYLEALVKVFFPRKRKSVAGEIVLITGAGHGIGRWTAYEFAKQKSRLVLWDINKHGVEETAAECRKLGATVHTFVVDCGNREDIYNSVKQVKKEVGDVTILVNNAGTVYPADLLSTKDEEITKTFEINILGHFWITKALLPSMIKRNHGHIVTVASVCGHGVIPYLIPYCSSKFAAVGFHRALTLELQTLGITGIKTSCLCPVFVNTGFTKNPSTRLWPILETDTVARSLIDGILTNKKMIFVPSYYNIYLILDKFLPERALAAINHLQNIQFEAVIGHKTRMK
# Text: (§1) To understand ligand binding, we tested several approaches such as surface plasmon resonance and isothermal calorimetry. […] We next turned to thermal shift assays (TSA) for comparing ligand binding affinities. TSA measures the changes in the thermal denaturation temperature of a protein under different conditions such as the presence compound, changes in buffer conditions, or sequence mutations. There are various readouts including intrinsic fluorescence or light scattering signals. We chose the static light scattering methods to detect the temperatures at which our proteins start to aggregate (Tagg), which are more suitable for membrane proteins that require detergent micelles for stability.
# (§2) TSA studies were run on the UNit instrument (Unchained Labs, CA, USA). […] The data was processed using the UNcle software (Unchained Labs, CA, USA), and temperatures at which the protein started aggregation were recorded as Tagg.
# human HSD17B13 [1] = biological target: T2, human HSD17B13 (Homo sapiens, UniProt Q7Z5P4); assay: Thermal shift assay (static light scattering, Tagg), human HSD17B13; type: binding; settings: for Tagg, individual measurements: 10.4 µM protein; for thermal stability change: Fig. 6c
# T2 construct: human HSD17B13 (residues 2-300, NP_835236.2); 10x His (N); TEV protease site (N); made in house; host or cells: Sf9 (baculovirus)
# T2 sequence (Q7Z5P4 2-300): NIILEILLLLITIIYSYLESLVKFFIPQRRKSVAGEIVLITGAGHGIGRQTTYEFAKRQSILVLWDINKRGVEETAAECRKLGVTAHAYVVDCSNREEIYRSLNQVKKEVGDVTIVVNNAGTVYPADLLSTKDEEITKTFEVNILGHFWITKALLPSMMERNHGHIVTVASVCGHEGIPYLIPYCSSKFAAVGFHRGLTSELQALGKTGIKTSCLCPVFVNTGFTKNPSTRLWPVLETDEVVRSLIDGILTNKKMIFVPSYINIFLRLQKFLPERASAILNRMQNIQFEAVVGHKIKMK
# Text: as §1
# TSA studies were run on the UNit instrument (Unchained Labs, CA, USA). Experiments were run in either 25 mM sodium phosphate pH 7, 150 mM NaCl, 10% glycerol, 1 mM TCEP, 0.05% DDM, + different cofactors (NAD^+, NADH, NADP, NADPH; MilliporeSigma) or 25 mM HEPES pH 7.2, 300 mM NaCl, 0.5 mM TCEP, 0.05% DDM, 10% glycerol, ±500 µM NAD^+, and ±100 µM compound 1 (from 2 mM DMSO stock) or DMSO or 50 mM Hepes pH 7.5, 300 mM NaCl, 0.5 mM TCEP, 0.05% DDM, 500 µM NAD^+, ± 50 µM compounds (from 2 mM stock) or DMSO. Protein aggregation was measured by static light scattering at 266 and 473 nm with a 1 °C/sec ramp rate from 20-80 °C. The data was processed using the UNcle software (Unchained Labs, CA, USA), and temperatures at which the protein started aggregation were recorded as Tagg. Reported Tagg and analysis were based on measurements at 266 nm unless otherwise indicated.
# human HSD17B13 [2] = biological target: T3, human HSD17B13 (Homo sapiens, UniProt Q7Z5P4); assay: Cell assay: HEK cells stably expressing wild-type human HSD17B13, estrone production by LCMS; type: cell-based
# T3 construct: expressed in transfected cells
# T3 sequence (Q7Z5P4 20-300): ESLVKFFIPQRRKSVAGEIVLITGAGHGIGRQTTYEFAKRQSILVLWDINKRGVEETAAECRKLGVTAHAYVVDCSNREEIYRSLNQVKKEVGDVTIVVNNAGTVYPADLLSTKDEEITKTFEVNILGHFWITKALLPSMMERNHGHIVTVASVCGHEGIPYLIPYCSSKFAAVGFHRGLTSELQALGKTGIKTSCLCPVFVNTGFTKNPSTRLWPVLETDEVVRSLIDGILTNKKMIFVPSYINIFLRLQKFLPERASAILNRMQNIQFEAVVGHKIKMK
# Method: Cell inhibition potency of test compounds was determined using a whole-cell HEK overexpressing HSD17B13, utilizing a liquid chromatography/mass spectrometry (LCMS) readout.
# In this assay HSD17B13 uses NAD^+ as a cofactor during metabolism of β-estradiol, converting NAD^+ to NADH and β-estradiol to estrone. Estrone production is quantified by LCMS using a Sciex API-5500-Electrospray system (AB Sciex LLC, MA, USA), and used as a measure of HSD17B13 enzyme activity.
# The amount of product (estrone) was then quantified by LCMS using software provided (Analyst 1.7, Hotfix 3, MultiQuant 3.0.31721.0). Data expressed as product area ratio (PAR) were then normalized to control wells using Activity Base (IDBS). Zero percent effect (ZPE) was defined as PAR generated from uninhibited HSD17B13 (vehicle control).
# [3] = biological target: T4, dog mutant HSD17B13 (G177E/V178G/T205A/I293V) (Canis lupus familiaris, UniProt A0A8C0PP93, G177E/I293V/T205A/V178G); assay: Thermal shift assay (static light scattering, Tagg), dog mutant HSD17B13; type: binding; settings: Fig. 6d, 500 μM NAD+
# T4 construct: HSD17B13 (AA1-300, XP_038300006.1); made in house; host or cells: Sf9 (baculovirus)
# T4 sequence (A0A8C0PP93 1-300 G177E/V178G/T205A/I293V): T1 sequence (A0A8C0PP93 1-300) with G177E, V178G, T205A, I293V
# Text: as §1, §2
compound,measurement,setting,value
O=C(NC[C@]1(O)CC[C@H](COc2ccccc2F)CC1)c1ccc(O)c(F)c1 [Compound 1],stabilization in TSA,dog WT HSD17B13,Neither 1 nor 2 stabilized dog WT HSD17B13 significantly
same,"Tagg, individual measurements",human HSD17B13 [1]; 100 µM ligand + 500 µM NAD+,54.6 °C and 55.1 °C (2×) and 54.2 °C
same,"Tagg, individual measurements","human HSD17B13 [1]; 100 µM ligand, buffer without NAD+",41.2 °C and 41.6 °C and 44.6 °C and 45 °C
same,deltaTagg,"human HSD17B13 [1]; 500 uM NAD, 100 µM ligand, Tagg(compound + NAD+) - Tagg(buffer + NAD+)",13.1
same,thermal stability change,human HSD17B13 [1]; in the absence of cofactor,no significant effect
same,thermal stability change,human HSD17B13 [1]; in the presence of NAD+,significant increase in thermal stability
same,binding in TSA,"human HSD17B13 [1]; Fig. 6d, 500 μM NAD+",bound human HSD17B13 strongly
same,Tagg,"human HSD17B13 [1]; Fig. 6d, 500 μM NAD+, 50 µM compound",49.1 ± 2.0 °C
same,dTagg,"human HSD17B13 [1]; no NAD, 100 µM ligand, vs buffer",3.033
same,activity in cell assay,human HSD17B13 [2]; HEK cells overexpressing HSD17B13,active
same,IC50,"human HSD17B13 [2]; HEK cells overexpressing HSD17B13, β-estradiol substrate",570 ± 120 nM
same,binding in TSA,[3],bound compound 1 strongly
same,Tagg,[3]; 50 µM compound,46.8 ± 2.2 °C
